Measurements as given in ChEMBL document CHEMBL1140152, “Modified peptides as potent inhibitors of the postsynaptic density-95/N-methyl-D-aspartate receptor interaction” (J Med Chem, 2008).
Activity calls are given as the source filed them. No cut-off for these calls is given here. Where a SMILES comes first, the peptide text is derived from it. [ ]: non-standard residue; d: D form. NMeV = CN[C@H](C(=O)O)C(C)C; NMeS = CN[C@@H](CO)C(=O)O; hSer = N[C@@H](CCO)C(=O)O; Abu = CC[C@H](N)C(=O)O; Aib = CC(C)(N)C(=O)O

Tests used:
Disks large homolog 4 [1] = target: T1, Disks large homolog 4 (Homo sapiens, UniProt P78352); test: Binding affinity to human PSD95 domain PDZ1 expressed in Escherichia coli BL21-DE3 by fluorescence polarization assay
Target sequence in this assay (P78352 whole entry, the tested form may be a part): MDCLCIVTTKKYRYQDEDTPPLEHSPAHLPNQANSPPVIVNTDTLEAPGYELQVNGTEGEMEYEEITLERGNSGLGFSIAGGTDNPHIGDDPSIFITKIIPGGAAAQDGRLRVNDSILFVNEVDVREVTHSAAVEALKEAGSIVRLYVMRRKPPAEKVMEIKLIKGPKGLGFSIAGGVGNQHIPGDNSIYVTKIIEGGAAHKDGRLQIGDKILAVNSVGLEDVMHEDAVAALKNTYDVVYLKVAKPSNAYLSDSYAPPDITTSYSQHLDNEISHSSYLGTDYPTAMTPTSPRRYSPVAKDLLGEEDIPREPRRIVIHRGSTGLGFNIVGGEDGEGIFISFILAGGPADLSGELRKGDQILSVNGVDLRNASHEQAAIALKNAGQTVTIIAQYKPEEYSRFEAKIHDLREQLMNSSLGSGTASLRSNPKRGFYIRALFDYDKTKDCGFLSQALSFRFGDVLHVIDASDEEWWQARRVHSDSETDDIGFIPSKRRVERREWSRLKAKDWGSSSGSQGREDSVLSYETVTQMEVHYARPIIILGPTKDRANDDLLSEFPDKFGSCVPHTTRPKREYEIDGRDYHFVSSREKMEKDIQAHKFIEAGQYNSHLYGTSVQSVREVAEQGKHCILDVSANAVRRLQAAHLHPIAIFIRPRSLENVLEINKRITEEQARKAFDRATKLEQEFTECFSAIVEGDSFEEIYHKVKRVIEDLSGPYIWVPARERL

Disks large homolog 4 [2] = target: T1, Disks large homolog 4; test: Binding affinity to human PSD95 domain PDZ2 expressed in Escherichia coli BL21-DE3 by fluorescence polarization assay
Target sequence in this assay (P78352 whole entry, looked up, the tested form may be a part): as the sequence (P78352 whole entry, the tested form may be a part) above

Disks large homolog 4 [3] = target: T1, Disks large homolog 4; test: Binding affinity to human PSD95 domain PDZ1 expressed in Escherichia coli BL21-DE3 by fluorescence polarization assay
Target sequence in this assay (P78352 whole entry, looked up, the tested form may be a part): as the sequence (P78352 whole entry, the tested form may be a part) above

Disks large homolog 4 [4] = target: T1, Disks large homolog 4; test: Binding affinity to human PSD95 domain PDZ3 expressed in Escherichia coli BL21-DE3 by fluorescence polarization assay
Disks large homolog 4 [5] = target: T1, Disks large homolog 4; test: Binding affinity to human PSD95 domain PDZ2 expressed in Escherichia coli BL21-DE3 by fluorescence polarization assay
Target sequence in this assay (P78352 whole entry, the tested form may be a part): as above

Compound | Activity (Disks large homolog 4 [2]) | Activity (Disks large homolog 4 [3]) | also measured
CC(C)[C@H](NC(=O)[C@H](C)NC(=O)[C@@H](NC(=O)[C@H](CCC(=O)O)NCC1CCCCC1)[C@@H](C)O)C(=O)O | – | – | Ki (Disks large homolog 4 [1]): 1 µM
CC(C)(NC(=O)[C@H](CC(=O)O)NC(=O)[C@H](CO)NC(=O)[C@@H](N)CCC(=O)O)C(=O)O (H-ESD[Aib]-OH) | inactive | inactive | –
CC(C)[C@H](NC(=O)[C@H](CC(=O)O)NC(=O)[C@H](CO)N(C)C(=O)[C@@H](N)CCC(=O)O)C(=O)O (H-E[NMeS]DV-OH) | inactive | inactive | –
CC(C)[C@H](NC(=O)[C@H](C)NC(=O)[C@@H](NC(=O)[C@H](CCC(=O)O)NCCC1CCCCC1)[C@@H](C)O)C(=O)O | – | – | Ki (Disks large homolog 4 [4]): 11 µM
CC(C)[C@H](NC(=O)[C@H](C)NC(=O)[C@@H](NC(=O)[C@H](CCC(=O)O)NCCCc1ccc(F)c(F)c1)[C@@H](C)O)C(=O)O | – | – | Ki (Disks large homolog 4 [5]): 1 µM
CC(C)[C@H](NC(=O)[C@H](CC(=O)O)NC(=O)[C@H](CCO)NC(=O)[C@@H](N)CCC(=O)O)C(=O)O (H-E[hSer]DV-OH) | inactive | inactive | –
CC(C)[C@@H](C(=O)O)N(C)C(=O)[C@H](CC(=O)O)NC(=O)[C@H](CO)NC(=O)[C@@H](N)CCC(=O)O (H-ESD[NMeV]-OH) | inactive | inactive | –
CC(C)[C@H](NC(=O)[C@H](C)NC(=O)[C@@H](NC(=O)[C@H](CCC(=O)O)NCCc1ccc2ccccc2c1)[C@@H](C)O)C(=O)O | – | – | Ki (Disks large homolog 4 [1]): 1 µM
CC(C)[C@H](NC(=O)[C@H](CC(=O)O)NC(=O)[C@@H](NC(=O)[C@@H](N)CCC(=O)O)[C@H](C)CO)C(=O)O | inactive | inactive | –
CC[C@H](NC(=O)[C@H](CC(=O)O)NC(=O)[C@H](CO)NC(=O)[C@@H](N)CCC(=O)O)C(=O)O (H-ESD[Abu]-OH) | inactive | – | –
CC[C@H](C)[C@H](NC(=O)[C@H](CO)NC(=O)[C@H](CO)NC(=O)[C@H](CC(C)C)NC(=O)[C@H](CCCCN)NC(=O)[C@H](CCCNC(=N)N)NC(=O)[C@H](CCCNC(=N)N)NC(=O)[C@H](CCCNC(=N)N)NC(=O)[C@H](CCC(N)=O)NC(=O)[C@H](CCCNC(=N)N)NC(=O)[C@H](CCCNC(=N)N)NC(=O)[C@H](CCCCN)NC(=O)[C@H](CCCCN)NC(=O)[C@H](CCCNC(=N)N)NC(=O)CNC(=O)[C@@H](N)Cc1ccc(O)cc1)C(=O)N[C@@H](CCC(=O)O)C(=O)N[C@@H](CO)C(=O)N[C@@H](CC(=O)O)C(=O)N[C@H](C(=O)O)C(C)C | – | – | Activity (Disks large homolog 4 [4]): inactive
CN[C@@H](CCC(=O)O)C(=O)N[C@H](C(=O)N[C@@H](C)C(=O)N[C@H](C(=O)O)C(C)C)[C@@H](C)O | – | – | Ki (Disks large homolog 4 [1]): 11 µM
CC(C)[C@H](NC(=O)[C@H](CC(=O)O)NC(=O)[C@@H](NC(=O)[C@@H](N)CCC(=O)O)C(C)(C)CO)C(=O)O | inactive | inactive | –
H-KSGYEKLSSIESDV-OH | – | – | Activity (Disks large homolog 4 [4]): inactive
